Experimental data as given in ChEMBL document CHEMBL2406975, “β-Secretase Inhibitors for the Treatment of Alzheimer's Disease and Down's Syndrome” (ACS Med Chem Lett, 2013).

Target: Beta-secretase 1 (Homo sapiens, UniProt P56817)
Experiment: Inhibition of BACE1 in human SH-SY5Y cells assessed as release of sAPPbeta after 17 hrs
Type: cell-based

Beta-secretase 1, sequence (P56817 whole entry): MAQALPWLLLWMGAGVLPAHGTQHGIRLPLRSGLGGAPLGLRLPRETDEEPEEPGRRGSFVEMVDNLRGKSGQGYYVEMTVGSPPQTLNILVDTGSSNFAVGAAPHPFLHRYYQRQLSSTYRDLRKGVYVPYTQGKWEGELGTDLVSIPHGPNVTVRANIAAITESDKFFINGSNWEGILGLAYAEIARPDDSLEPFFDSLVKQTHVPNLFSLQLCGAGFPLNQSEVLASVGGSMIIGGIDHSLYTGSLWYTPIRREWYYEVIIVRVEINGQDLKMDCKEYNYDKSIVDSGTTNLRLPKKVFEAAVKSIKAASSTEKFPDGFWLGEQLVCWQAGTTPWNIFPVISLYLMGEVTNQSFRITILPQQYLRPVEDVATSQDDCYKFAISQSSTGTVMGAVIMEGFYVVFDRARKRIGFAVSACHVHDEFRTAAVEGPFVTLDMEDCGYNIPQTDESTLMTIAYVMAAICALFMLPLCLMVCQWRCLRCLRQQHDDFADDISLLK

SMILES | IC50
CO[C@H]1CC[C@]2(CC1)Cc1ccc(-c3cncnc3)cc1C21C=C(F)C(N)=N1 (some centres undefined) | 1.1 nM
CC1(C)Cc2ccc(-c3cncnc3)cc2C12C=C(F)C(N)=N2 (centres undefined) | 168 nM
CC#Cc1cncc(-c2ccc3c(c2)C2(C=C(F)C(N)=N2)[C@]2(CC[C@@H](OC)CC2)C3)c1 (some centres undefined) | 1.1 nM
CC#Cc1cncc(-c2ccc3c(c2)C2(C=C(F)C(N)=N2)[C@]2(CC[C@H](OC)CC2)C3)c1 (some centres undefined) | 0.031 nM
